Source: article PMC9024523, “Phenoxyaromatic Acid Analogues as Novel Radiotherapy Sensitizers: Design, Synthesis and Biological Evaluation” (Molecules, 2022)
Where “and” joins values, the source holds several entries; their conditions need not be identical. Equal values may be shown once. Entries after “also recorded” stand apart in the source; their conditions may differ.

Columns and labels:
[1] = test system: mouse red blood cells; assay: In vitro red blood cell-based assay (oxygen equilibrium curve, Softron analyzer); details: final effector concentration 2 mM, mean ± SD; for P50/P50C: P50C = control with 1% DMSO; for P50: 1% DMSO; for P50 / ∆P50: mouse red blood cells; for ∆P50: ∆P50 = P50 − P50C
Text: In the first stage of our research, three series of analogues were designed and synthesized to explore refinement of the hydrophobic parts of 19f, 19m, 24a and 24b; hinge areas of 18g, 19b and 19y; and tail regions of 15c, 15d and 16c, respectively. We used the Softron Analyzer to evaluate the effect of these compounds on the half-blood oxygen saturation(P50) value of red blood cells. The most promising phenoxyaromatic acid compound, efaproxiral, was used as a positive control. […] The results reminded us that the modification of the hydrophobic part or linker extension is beneficial to improve an allosteric effect.
Eight-week-old female C57BL6J mice were purchased from Beijing Vital River Laboratory Animal Technology Co., Ltd. A total of 540 μL mouse blood was added into the 1.5 mL centrifuge tube, followed by adding 60 μL 3.8% sodium citrate. The mixture was then centrifuged at 1500 rpm for 10 min, the supernatant was carefully aspirated, and the cells were washed three times with PBS solution. After mixing packed red blood cells with Alsever’s solution in a ratio of 1:1, a blood gas analyzer (RADIOMETER ABL 90) was used to analyze the red blood cell density and hemoglobin concentration.
All of the compounds were prepared as 200 mM stock solutions in DMSO. Oxygen equilibrium measurements were performed with the Softron analyzer (Softron Medical Products, Beijing, China) using mouse red blood cells. The samples were prepared by adding 3 mg hemoglobin equivalent of red blood cells into 3.92 mL loading buffer (100 mM NaCl, 50 mM bis-Tris at pH 7.2 and 25 °C), followed by 20 μL 10% Dimethicone as a defoamer and 20 μL 20% BSA. Afterwards, 40 μL stock solution was added, and the mixture was loaded to the sample cell and fully deoxygenated by blowing into nitrogen at 37 °C for 15 min. Then, the oxygen equilibrium curve was recorded by blowing into oxygen.

[2] = test system: luciferase-labeled U87MG implanted into Balb/c nude mice brains; assay: In vivo radiosensitization on orthotopically transplanted GB; parameters: species or system mouse; details: 150 mg/kg ip combined with IR
Description: In order to evaluate in vivo antitumor effects, luciferase-labeled U87MG was implanted into Balb/c nude mice brains. A small animal bioluminescence imaging system was applied to trace the tumor formation and dynamic changes in GB size. Cobalt 60 was used for fractionated-dose whole-brain irradiation therapy (IR). The tumor was irradiated with a total dose of 12 Gy in four fractions of 3 Gy at a dose rate of 0.3 Gy/min. Efaproxiral or 19c was administrated at a dosage of 150 mg/kg by intraperitoneal injection (ip) every four days over a period of sixteen days. IR was conducted 15 min after ip.
Four-week-old female BALB/c nude mice were purchased from Beijing Vital River Laboratory Animal Technology Co., Ltd. Animals were monitored daily by certified veterinary staff and laboratory personnel. All mice used in this study were maintained in a pathogen-free barrier animal facility. The study was in compliance with all relevant ethical regulations regarding animal research. All animal experiments were approved by the Institutional Animal Care and Use Committee at the Beijing Institute of Basic Medical Sciences. The U87-luc cells were processed and resuspended into basal medium at a concentration of 10^7 cells/mL. Next, 8 × 10^5 U87-luc glioma cells were implanted into the right frontal lobes of each nude mouse. Ten days after tumor implantation, tumor-bearing mice were randomly divided into six groups according to the tumor size and subjected to the indicated treatment (n = 6). Administration of drugs (150mg/kg) or vehicle was performed once every 4 days four consecutive times by intraperitoneal injection. All radiation treatments were performed 25 min after the drug or vehicle was given. Tumors on the brains of mice were irradiated at a dosage of 3 Gy four consecutive times using a ^60Co γ irradiator. The dose rate was 0.3 Gy/min. The bodies of the mice were shielded using lead blocks. The tumor progress was tracked by a small animal live bioluminescence imaging system (LB983NC100U, Germany).

[3] = test system: U87MG cells; assay: Cell Titer-Glo cytotoxicity assay, U87MG; type: cell-based, human
Description: (§1) For further in vivo evaluation of newly synthesized compounds, 19c and 19t were selected as candidates. Hemoglobin allosteric effectors require a relatively high blood concentration to be effective. Cytotoxicity evaluation was conducted out of consideration for medication safety. HEK293 and U87MG cells were used to evaluate the cytotoxicity.
(§2) Luciferase-transfected human glioma cells (U87-luc) and HEK293 cells were kindly provided by Dr. Nie and cultured in Dulbecco’s Modified Eagle Medium (CM10013, MacGene) with 10% fetal bovine serum (1966173C, Gibco) and 1% penicillin-streptomycin in a humidified atmosphere of 5% CO2 at 37 °C.
(§3) Cells were plated in a 96-well plate at a density of 2000 cells/well and then treated with 19c or 19t at gradient concentrations of 10^1, 10^2, 10^3, 10^4, 10^5, 10^6and 10^7 nM. Compounds 19c and 19t were prepared as the sodium salt by adding saturated sodium bicarbonate in the process of stock solution preparation. Cell viability was evaluated on the indicated days after treatment with a Cell Titer-Glo Luminescent Cell Viability Assay kit (G7572, Promega, Madison, WI, USA) according to the manufacturer’s instructions. All data were normalized to those on day 0 and presented as the mean ± standard deviation (SD).

[4] = test system: HEK293 cells; assay: Cell Titer-Glo cytotoxicity assay, HEK293; type: cell-based
Description: as §1, §2, §3

Cc1cc(C)cc(NC(=O)Cc2ccc(OC(C)(C)C(=O)O)cc2)c1 [Efaproxiral, 2-(4-(2-((3,5-dimethylphenyl)amino)-2-oxoethyl)phenoxy)-2-methylpropanoic acid, reference compound]
P50/P50C [1]: 1.79 ± 0.02
P50 [1]: 82.50 ± 1.01 mmHg
∆P50 [1]: 36.40 mmHg
∆P50 ([1]; listed as Efaproxiral ( 19a )): 36.40 ± 1.01 mmHg
overall survival time of tumor-bearing mice compared to vehicle control [2]: could improve the overall survival time

CSc1cccc(NCCc2ccc(OC(C)(C)C(=O)O)cc2)c1 [18c, 2-methyl-2-(4-(2-((3-(methylthio)phenyl)amino)ethyl)phenoxy)propanoic acid]
P50/P50C [1]: 1.28 ± 0.07
P50 [1]: 48.61 ± 4.43 mmHg
∆P50 [1]: 10.7 ± 2.95 mmHg

Cc1cc(C)cc(NCCCc2ccc(OC(C)(C)C(=O)O)cc2)c1 [18a, 2-(4-(3-((3,5-dimethylphenyl)amino)propyl)phenoxy)-2-methylpropanoic acid]
P50/P50C [1]: 1.41 ± 0.03
P50 [1]: 77.19 ± 5.93 mmHg
∆P50 [1]: 22.54 ± 2.74 mmHg

(E)-2-methyl-2-(4-(3-((3-(methylthio)phenyl)amino)-3-oxoprop-1-en-1- yl)phenoxy) propanoic acid [19t]
P50/P50C [1]: 2.13 ± 0.07
P50 [1]: 89.62 ± 2.02 mmHg
K (Hill coefficient of the oxygen dissociation curve at 50% saturation) [1]: 2.43 ± 0.16
∆P50 [1]: 44.38 mmHg and 44.38 ± 2.02 mmHg
cytotoxicity (summary statement) ([3]; U87MG (glioma) cells): cytotoxic toward both cells with no selectivity; also recorded: cytotoxic to both normal and glioma cells at low micromolar levels without selectivity
cytotoxicity ([3]; U87MG cells, concentration of 10 μm): showed cytotoxicity
IC50 ([3]; U87MG cells, sodium salt stock): 183 µM
cytotoxicity (summary statement) ([4]; HEK293 (normal) cells): cytotoxic toward both cells with no selectivity; also recorded: cytotoxic to both normal and glioma cells at low micromolar levels without selectivity
cytotoxicity ([4]; HEK293 cells, concentration of 10 μm): showed cytotoxicity
TC50 ([4]; HEK293 cells, sodium salt stock): 165 µM

CC(C)(Oc1ccc(/C=C/C(=O)Nc2cc(Cl)cc(Br)c2)cc1)C(=O)O [19w, (E)-2-(4-(3-((3-bromo-5-chlorophenyl)amino)-3-oxoprop-1-en-1-yl)phenoxy)-2-methylpropanoic acid]
P50/P50C [1]: 1.50 ± 0.08
P50 [1]: 56.76 ± 2.93 mmHg
∆P50 [1]: 18.85 ± 2.93 mmHg

Cc1cc(C)cc(NC(=O)Cc2ccc(OCCCC(=O)O)cc2)c1 [16a, 4-(4-(2-((3,5-dimethylphenyl)amino)-2-oxoethyl)phenoxy)butanoic acid]
P50/P50C [1]: 1.18 ± 0.04
P50 [1]: 53.49 ± 1.85 mmHg
∆P50 [1]: 8.25 ± 1.85 mmHg

C#Cc1ccc(NC(=O)Cc2ccc(OC(C)(C)C(=O)O)cc2)cc1 [19n, 2-(4-(2-((4-ethynylphenyl)amino)-2-oxoethyl)phenoxy)-2-methylpropanoic acid]
P50/P50C [1]: 1.46 ± 0.02
P50 [1]: 60.34 ± 0.70 mmHg
∆P50 [1]: 19.15 mmHg and 19.15 ± 0.70 mmHg

CCOC(=O)CCCOc1ccc(CC(=O)Nc2cc(C)cc(C)c2)cc1 [15a, Ethyl 4-(4-(2-((3,5-dimethylphenyl)amino)-2-oxoethyl)phenoxy)butanoate]
P50/P50C [1]: 0.96 ± 0.25
P50 [1]: 43.55 ± 11.21 mmHg
∆P50 [1]: −1.70 ± 11.21 mmHg

CSc1cccc(NC(=O)Cc2ccc(OC(C)(C)C(=O)O)cc2)c1 [19m-1, 2-methyl-2-(4-(2-((3-(methylthio)phenyl)amino)-2-oxoethyl)phenoxy)propanoic acid]
P50/P50C [1]: 1.81 ± 0.02
P50 [1]: 81.67 ± 0.95 mmHg
∆P50 [1]: 36.43 mmHg and 36.43 ± 0.95 mmHg

CC(C)(Oc1ccc(CC(=O)Nc2ccc(-c3ccccc3)cc2)cc1)C(=O)O [19o, 2-(4-(2-([1,1′-biphenyl]-4-ylamino)-2-oxoethyl)phenoxy)-2-methylpropanoic acid]
P50/P50C [1]: 1.81 ± 0.04
P50 [1]: 74.56 ± 1.75 mmHg
∆P50 [1]: 33.37 mmHg
∆P50 ([1]; listed as 190): 33.37 ± 1.75 mmHg

CCCCCCNC(=O)Cc1ccc(OC(C)(C)C(=O)O)cc1 [24g, 2-(4-(2-(hexylamino)-2-oxoethyl)phenoxy)-2-methylpropanoic acid]
P50/P50C [1]: 1.10 ± 0.04
P50 [1]: 46.17 ± 7.11 mmHg
∆P50 [1]: 4.34 ± 2.30 mmHg

C=CCN(CC=C)C(=O)Cc1ccc(OC(C)(C)C(=O)O)cc1 [24a, 2-(4-(2-(diallylamino)-2-oxoethyl)phenoxy)-2-methylpropanoic acid]
P50/P50C [1]: 1.25 ± 0.21
P50 [1]: 55.80 ± 18.99 mmHg
∆P50 [1]: 11.80 ± 11.11 mmHg

CC(C)(Oc1ccc(CC(=O)Nc2cccc(I)c2)cc1)C(=O)O [19i, 2-(4-(2-((3-iodophenyl)amino)-2-oxoethyl)phenoxy)-2-methylpropanoic acid]
P50/P50C [1]: 1.91 ± 0.13
P50 [1]: 86.61 ± 6.04 mmHg
∆P50 [1]: 41.37 mmHg and 41.37 ± 6.04 mmHg

2-methyl-2-(4-(2-(naphthalen-2-ylamino)ethyl)phenoxy)propanoic acid [18f]
P50/P50C [1]: 1.72 ± 0.03
P50 [1]: 79.24 ± 1.61 mmHg
K (Hill coefficient of the oxygen dissociation curve at 50% saturation) [1]: 1.89 ± 0.13
∆P50 [1]: 33.13 ± 1.61 mmHg
